# Results: patent US4945097A, “Aryl-cycloalkyl-alkanolamines for treatment of neurotoxic injury” (priority 1987, dated 1990)
# Columns and labels:
# [1] = system: NMA neurotoxicity in 15-day old chick embryo retina; experiment: NMDA/KA Antagonist Assay: prevention of NMA neurotoxicity in chick embryo retina; type: cell-based; settings: Gallus gallus, 0.5 h; NMA 200 μM, retina incubated 30 min at 37° C in BSS, complete protection in all specimens (n>6); read-out: antagonist potency vs NMA: concentration required to totally prevent a neurotoxic reaction
# Protocol: Two agonists were employed in the present test, each at a concentration established previously to be the lowest concentration required to consistently cause a fully-developed retinal lesion: KA (25 μM) and NMA (200 μM). […] Internal controls in each experiment consisted of at least six specimens being incubated with agonist alone. […] The method of tissue preparation was as follows: 15-day old chick embryos were decapitated and their eyes removed and cut into quadrants after excising the cornea and removing the lens, vitreous and iris. The retinal quadrants were then gently separated from the pigment epithelium and incubated for 30 min. at 37° C. in BSS to which an agonist or agonist plus antagonist was added. The BSS contained 140 mM Na^+, 5.0 mM K^+, 0.5 mM Ca^++, 4 5 mM mG^++, 150 mM Cl^-, 5.6 mM glucose and bicarbonate/phosphate buffer (pH 7.3). After incubation for 30 min., the retinal quadrants were fixed by immersion in phosphate-buffered solution containing 1.5% glutaraldehyde and 1% paraformaldehyde, then additionally fixed in 1% osmium tetroxide, dehydrated in graded ethanols, cleared in toluene and embedded in araldite. Sections were cut 1 micron thick on a Sorval ultratome and stained with Methylene blue/Azure 11 for histopathological evaluation by light microscopy.
# [2] = system: KA neurotoxicity in 15-day old chick embryo retina; experiment: NMDA/KA Antagonist Assay: prevention of KA neurotoxicity in chick embryo retina; type: cell-based; parameters: key: --: A dash signifies no antagonist action; settings: KA 25 μM, retina incubated 30 min at 37° C in BSS
# Protocol: A 15-day old chick embryo retina, incubated for 30 min. in a balanced sat solution (BSS) containing 1 mM Glu, developed a full lesion resembling that described in the immature mouse retina following s.c. administration of Glu. Other excitotoxin agonists also produce acute lesions within 30 min., each agent being effective at a concentration proportional to its known excitatory and toxic potencies. The pattern of cellular degeneration is restricted in each case to the ganglion cell, inner plexiform and inner nuclear layers, but within these areas certain agonists induce different patterns of degeneration, the differences being most pronounced between NMA and KA. Two agonists were employed in the present test, each at a concentration established previously to be the lowest concentration required to consistently cause a fully-developed retinal lesion: KA (25 μM) and NMA (200 μM). Procyclidine, biperiden and trihexyphenidyl were tested at various concentrations for their ability to prevent KA or NMA neurotoxicity. […] Internal controls in each experiment consisted of at least six specimens being incubated with agonist alone. A typical toxic reaction had to be present in all controls and absent from all experimental specimens in order to qualify as a blocking effect. The method of tissue preparation was as follows: 15-day old chick embryos were decapitated and their eyes removed and cut into quadrants after excising the cornea and removing the lens, vitreous and iris. The retinal quadrants were then gently separated from the pigment epithelium and incubated for 30 min. at 37° C. in BSS to which an agonist or agonist plus antagonist was added. The BSS contained 140 mM Na^+, 5.0 mM K^+, 0.5 mM Ca^++, […], 150 mM Cl^-, 5.6 mM glucose and bicarbonate/phosphate buffer (pH 7.3). After incubation for 30 min., the retinal quadrants were fixed by immersion in phosphate-buffered solution containing 1.5% glutaraldehyde and 1% paraformaldehyde, then additionally fixed in 1% osmium tetroxide, dehydrated in graded ethanols, cleared in toluene and embedded in araldite. […]
# [3] = system: H/I neuronal degeneration in Sprague Dawley rats, 10 days old; type: in vivo
# Protocol: A total of 30 Sprague Dawley rats, 10 days old, were used in this assay. Ten pups (5 control and 5 experimental) were studied on each of 3 separate days, the protocol being the same each day. A unilateral carotid ligation was performed under halothane anesthesia, and the incision was closed with super glue. After recovery from anesthesia, the experimental pups were given a subcutaneous injection of procyclidine (50 mg/kg in 0.1 ml aqueous solution, pH 7.4) and controls an equal volume sc injection of normal saline. Immediately thereafter, all 10 of the pups (half control and half experimental) were placed together in a large sealed transparent chamber and a partial vacuum was gradually created (pressure reduced from 760 to 200 mm Hg over a 1 minute period). A water bath surrounding the bottom half of the chamber kept the temperature inside at 38° C. After 75 minutes the pressure was returned gradually to 760 mm Hg over a 1 minute interval and, after a 2 hour observation period, the pups were anesthetized, the neck incision opened and the ligature removed from the carotid (a piece of tubing had originally been placed between the suture and vessel wall to facilitate subsequent removal of the suture without damage to the vessel wall). While still under anesthesia, the pups were sacrificed by perfusion fixation with aldehyde fixatives. Since the ligature had been removed from the occluded carotid, perfusate was able to distribute equally to the two hemispheres. After 15 minutes of perfusion, the brains were removed and sliced in 1 mm thick transverse slabs which were post fixed in osmium tetroxide, dehydrated in graded ethanols, cleared in toluene and embedded flat in araldite [J. W. Olney, "Glutamate-Induced Neuronal Necrosis In The Infant Mouse Hypothalamus: An Electron Microscopic Study", Neuropthol. Exp. Neurol., 30, 75-90 (1971)]. Sections (1 micron thick) were cut at 40 micron intervals and stained with azure II/methylene blue to permit a systematic microscopic evaluation of all regions of interest in each brain. In a large number of control infant rats (n>100) subjected to the above hypobaric/ischemic conditions, there has been shown a 90% survival rate (10% die in the hypobaric chamber) and a 94% incidence of brain damage which is always confined unilaterally to the side of the carotid ligation [J. M. Olney, "Hypoxia-Ischemia Causes Glutamate-Like Neuropathological changes in Infant Rat Brain", Neurosci Abst., 13, 1553 (1987)]. […] The damage in control rats consists of unilateral disseminated acute neuronal degeneration in some or all of the following regions: medial habenulum, dentate hippocampal gyrus, caudate nucleus, olfactory tubercle, islands of calleja, fronto-parietal neocortex and several thalamic nuclei. Two of 15 control and 2 of 15 experimental infants died in the hypobaric chamber. […] Among the 13 surviving procyclidine-treated pups, 10 had no damage in any of the above brain regions, 3 had small attenuated lesions, limited in two pups to the medial habenulum and in one to the caudate. […] Signs such as ataxia, head and body weaving, prostration and respiratory depression, which are sometimes seen in animals treated with antiexcitotoxic drugs, were not observed.
Structure (SMILES),EC100 [1],antagonist potency vs KA: concentration required to totally prevent a neurotoxic reaction [2],treated animals with total protection against H/I neuronal degeneration ([3]; 50 mg/kg sc),"number of surviving treated pups with no damage in any of the brain regions ([3]; 50 mg/kg sc, 13 surviving treated pups, carotid ligation plus 75 min hypobaric)","number of surviving treated pups with small attenuated lesions ([3]; 50 mg/kg sc, 13 surviving treated pups, two limited to medial habenulum, one to caudate)","treated animals with markedly reduced severity of neuropathology ([3]; 50 mg/kg sc, the remaining animals)","side effects of the single dose ([3]; rat, in vivo)"
"OC(CCN1CCCCC1)(c1ccccc1)C1CCCCC1 (stereo not drawn) [Trihexyphenidyl, α-cyclohexyl-α-phenyl-1-piperidinepropanol]",125 µM,--,,,,,
"OC(CCN1CCCC1)(c1ccccc1)C1CCCCC1 (stereo not drawn) [Procyclidine, α-cyclohexyl-α-phenyl-1-pyrrolidinepropanol]",,--,~80%,10,3,20%,minimal side effects
"OC(CCN1CCCCC1)(c1ccccc1)C1CC2C=CC1C2 (stereo not drawn) [Biperiden, α-bicyclo[2.2.1]hept-5-en-2-yl-α-phenyl-1-piperidinepropanol]",200 µM,--,,,,,
